Test [1] concerns the target T1, Aβ plaques (Homo sapiens, UniProt P05067).
T1 construct: from tissue; host or cells: brain (cortex and hippocampus) of 5 and 7 month old APP/PSEN1 transgenic mice
Put plainly: Ex vivo staining of mouse brain tissue sections (confocal fluorescence), with CG competition. The test is classed as binding, APP/PSEN1 transgenic mouse. The procedure:
The mice were engineered to progressively develop cortical and hippocampal plaques in an age-related manner similar to that observed in human AD pathology. Saggital sections (30 μm thick) from euthanized non-transgenic (control), 5, and 7 month old APP/PSEN1 mice were incubated in a 3 mM solution of the liposomes (concentration of Me-XO4 in the solution was 1 μM) for 2 h, at RT. This was followed by extensive washing with PBS to remove unbound liposomes. The stained tissues were mounted with […]® mounting media (Vector Laboratories, Inc., Burlingame, Calif.) to reduce background fluorescence and viewed under a confocal microscope.

Test [2] concerns the target T2, cortical and hippocampal Aβ plaques (Homo sapiens, UniProt P05067).
T2 construct: from tissue; host or cells: brain (cortex and hippocampus) of 5 and 7 month old APP/PSEN1 transgenic mice
Put plainly: In vivo delivery to cortical and hippocampal plaques after tail vein injection, confocal microscopy of brain sections. As to conditions: 48 h after injection. Also on record: species or system APP/PSEN1 mice. How it is done: 48 h following injection, the mice were euthanized and their brains sectioned for confocal light microscopic studies. Identical mice were injected with molecular/free methoxy-XO4 ligand to serve as a positive control, and with untargeted liposomes and saline as negative controls.

T2 sequence (P05067 672-713 limits assumed): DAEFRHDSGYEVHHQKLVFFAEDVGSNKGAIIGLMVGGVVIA
T1 sequence (P05067 672-713 limits assumed): as above

Regarding `O=C(O)c1cc(/N=N/c2ccc(-c3ccc(/N=N/c4ccc(O)c(C(=O)O)c4)cc3)cc2)ccc1O` [CG, Chrysamine G], the “competition with Me-XO4-labeled liposomes for Aβ plaque deposits: fluorescence intensity and number of labeled plaques” value in test [1] (1 μM Me-XO4 and increasing concentrations of CG, cortex and hippocampus) was “decrease in fluorescence intensity and the number of labeled plaques”.

With `COc1cc(/C=C/c2ccc(O)cc2)ccc1/C=C/c1ccc(O)cc1` [free methoxy-XO4 ligand, methoxy-XO4], in test [1] (7 month old APP/PSEN1 mice, 30 μm sagittal sections, 1 μM Me-XO4, 2 h, RT), the “staining of Aβ plaque deposits on brain sections” value is given as “same plaque deposition pattern was observed”. For the same molecule, the “in vivo staining of plaques (fluorescence of brain sections)” value in test [2] (5 month old APP/PSEN1 mice) is “no noteworthy fluorescence”; in test [2] (7 month old APP/PSEN1 mice), “bright staining of both cortical and hippocampal plaques”.

For the origin of these results see US10124078B2, “Lipid-based nanoparticles” (BOARD OF REGENTS OF THE UNIVERSITY OF HOUSTON SYSTEM, priority 2011, dated 2018).
